pIC50: −log10 of the molar value.
System: granule cell progenitor proliferation, radioactive thymidine incorporation
Test: granule cell progenitor growth inhibitors – radioactive thymidine incorporation, counter-screen for Wee1 degradation inhibitor project, late-stage follow-up (AID 504930)

Compound | pIC50
O=[N+]([O-])c1cccc2[nH]c(CNc3nc(N4CCOCC4)nc4c3ncn4-c3ccsc3)nc12 | 8.34
c1ccc2[nH]c(CNc3nc(N4CCOCC4)nc4c3ncn4-c3ccsc3)nc2c1 | 7.94

Reference: PubChem BioAssay AID504930 (The Scripps Research Institute Molecular Screening Center, 2011)
